35 substances from patent US8969516B2, “Method of hydrolysis of peptide bond” (priority 2006, dated 2015) can be followed below.

This series is described as follows: MALDI-TOF screening of Ni^2+ dependent hydrolysis in a combinatorial peptide library. In kind it is physicochemical. Particulars: Ni^2+ 2 mM, pH 8.2, 10 mM Tris, score=24/tm. The procedure, abridged:
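MALDI-TOF read-out: appearance of Ser/Thr-X-His-Z-Lys-Phe-Leu-NH2 product signals, plus loss of substrate signals, checked by eye at 2, 4, 6, 8 h. Conditions: 1 mM peptide mixture, 2 mM Ni2+, 10 mM Tris pH 8.2, 37 or 45 °C.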

[1] abbreviates: CH3CO-Gly-Ala-Ser-X-His-Z-Lys-Phe-Leu-NH2 library, 37° C.
Where [2] appears, read: CH3CO-Gly-Ala-Ser-X-His-Z-Lys-Phe-Leu-NH2 library, 45° C.
[3] abbreviates: CH3CO-Gly-Ala-Thr-X-His-Z-Lys-Phe-Leu-NH2 library, 37° C.
[4] abbreviates: CH3CO-Gly-Ala-Thr-X-His-Z-Lys-Phe-Leu-NH2 library, 45° C.

For the substance Ac-GASSHFKFL-NH2 [SSHF], the “hydrolysis score from MALDI-TOF screening” value (“hydrolysis score” for short) by setting is: under setting [1], 3 (a score of 3 for detection at 8 hours); under setting [2], 3 (a score of 3 for detection at 8 hours).
In the case of Ac-GATAHSKFL-NH2 [TAHS], the “hydrolysis score” value was 0 (a score of 0 if no trace of the product of hydrolysis was seen after 8 hours of incubation) under setting [3] and 0 (a score of 0 if no trace of the product of hydrolysis was seen after 8 hours of incubation) under setting [4].
Regarding Ac-GATHHWKFL-NH2 [THHW], the “hydrolysis score” value is recorded as 12 (a score of 12, if it was seen to be partially hydrolysed at 2 hours) under setting [3] and 12 (a score of 12, if it was seen to be partially hydrolysed at 2 hours) under setting [4].
For the substance Ac-GATLHSKFL-NH2 [TLHS], the “hydrolysis score” value is 0 (a score of 0 if no trace of the product of hydrolysis was seen after 8 hours of incubation) under setting [3] and 0 (a score of 0 if no trace of the product of hydrolysis was seen after 8 hours of incubation) under setting [4].
Consider Ac-GATYHSKFL-NH2 [TYHS], for which the “hydrolysis score” value is on record as 0 (a score of 0 if no trace of the product of hydrolysis was seen after 8 hours of incubation) under setting [3] and 0 (a score of 0 if no trace of the product of hydrolysis was seen after 8 hours of incubation) under setting [4].
For the substance Ac-GASAHFKFL-NH2 [SAHF], the “hydrolysis score” value under setting [1] was 0 (a score of 0 if no trace of the product of hydrolysis was seen after 8 hours of incubation) and the “hydrolysis score” value under setting [2] is 3 (a score of 3 for detection at 8 hours).
As to Ac-GATWHIKFL-NH2 [TWHI], the “hydrolysis score” value was 0 (a score of 0 if no trace of the product of hydrolysis was seen after 8 hours of incubation) under setting [3] and 3 (a score of 3 for detection at 8 hours) under setting [4].
As to Ac-GASTHSKFL-NH2 [STHS], the “hydrolysis score” value runs as follows: under setting [1], 0 (a score of 0 if no trace of the product of hydrolysis was seen after 8 hours of incubation); under setting [2], 0 (a score of 0 if no trace of the product of hydrolysis was seen after 8 hours of incubation).
Take Ac-GASMHDKFL-NH2 [SMHD]: the “hydrolysis score” value reads like this: under setting [1], 0 (a score of 0 if no trace of the product of hydrolysis was seen after 8 hours of incubation); under setting [2], 0 (a score of 0 if no trace of the product of hydrolysis was seen after 8 hours of incubation).
Turning to Ac-GASNHEKFL-NH2 [SNHE], the “hydrolysis score” value runs as follows: under setting [1], 0 (a score of 0 if no trace of the product of hydrolysis was seen after 8 hours of incubation); under setting [2], 0 (a score of 0 if no trace of the product of hydrolysis was seen after 8 hours of incubation).
For the substance Ac-GASHHLKFL-NH2 [SHHL], the “hydrolysis score” value is 6 (a score of 6 for detection at 4 hours) under setting [1] and 6 (a score of 6 for detection at 4 hours) under setting [2].
With Ac-GATGHIKFL-NH2 [TGHI], the “hydrolysis score” value reads like this: under setting [3], 0 (a score of 0 if no trace of the product of hydrolysis was seen after 8 hours of incubation); under setting [4], 0 (a score of 0 if no trace of the product of hydrolysis was seen after 8 hours of incubation).
In the case of Ac-GATHHTKFL-NH2 [THHT], the “hydrolysis score” value reads like this: under setting [3], 0 (a score of 0 if no trace of the product of hydrolysis was seen after 8 hours of incubation); under setting [4], 4 (a score of 4 for detection at 6 hours).
In the case of Ac-GASYHPKFL-NH2 [SYHP], the “hydrolysis score” value runs as follows: under setting [1], 0 (a score of 0 if no trace of the product of hydrolysis was seen after 8 hours of incubation); under setting [2], 0 (a score of 0 if no trace of the product of hydrolysis was seen after 8 hours of incubation).
Ac-GASRHRKFL-NH2 [SRHR]: the “hydrolysis score” value is given as 4 (a score of 4 for detection at 6 hours) under setting [1] and 12 (a score of 12, if it was seen to be partially hydrolysed at 2 hours) under setting [2].
For Ac-GASRHLKFL-NH2 [SRHL], the “hydrolysis score” value under setting [1] is listed as 12 (a score of 12, if it was seen to be partially hydrolysed at 2 hours) and the “hydrolysis score” value under setting [2] was 12 (a score of 12, if it was seen to be partially hydrolysed at 2 hours).
Consider Ac-GASIHQKFL-NH2 [SIHQ], for which the “hydrolysis score” value under setting [1] is given as 0 (a score of 0 if no trace of the product of hydrolysis was seen after 8 hours of incubation) and the “hydrolysis score” value under setting [2] is given as 0 (a score of 0 if no trace of the product of hydrolysis was seen after 8 hours of incubation).
As to Ac-GASKHGKFL-NH2 [SKHG], the “hydrolysis score” value by setting is: under setting [1], 0 (a score of 0 if no trace of the product of hydrolysis was seen after 8 hours of incubation); under setting [2], 0 (a score of 0 if no trace of the product of hydrolysis was seen after 8 hours of incubation).
Turning to Ac-GATKHEKFL-NH2 [TKHE], the “hydrolysis score” value is 0 (a score of 0 if no trace of the product of hydrolysis was seen after 8 hours of incubation) under setting [3] and 0 (a score of 0 if no trace of the product of hydrolysis was seen after 8 hours of incubation) under setting [4].
For Ac-GASMHGKFL-NH2 [SMHG], the “hydrolysis score” value by setting is: under setting [1], 0 (a score of 0 if no trace of the product of hydrolysis was seen after 8 hours of incubation); under setting [2], 0 (a score of 0 if no trace of the product of hydrolysis was seen after 8 hours of incubation).
For Ac-GATLHTKFL-NH2 [TLHT], the “hydrolysis score” value runs as follows: under setting [3], 0 (a score of 0 if no trace of the product of hydrolysis was seen after 8 hours of incubation); under setting [4], 0 (a score of 0 if no trace of the product of hydrolysis was seen after 8 hours of incubation).
As to Ac-GASLHEKFL-NH2 [SLHE], the “hydrolysis score” value under setting [1] is on record as 0 (a score of 0 if no trace of the product of hydrolysis was seen after 8 hours of incubation) and the “hydrolysis score” value under setting [2] is 0 (a score of 0 if no trace of the product of hydrolysis was seen after 8 hours of incubation).
Turning to Ac-GASSHLKFL-NH2 [SSHL], the “hydrolysis score” value was 6 (a score of 6 for detection at 4 hours) under setting [1] and 6 (a score of 6 for detection at 4 hours) under setting [2].
Regarding Ac-GATNHKKFL-NH2 [TNHK], the “hydrolysis score” value was 0 (a score of 0 if no trace of the product of hydrolysis was seen after 8 hours of incubation) under setting [3] and 0 (a score of 0 if no trace of the product of hydrolysis was seen after 8 hours of incubation) under setting [4].
Turning to Ac-GATGHGKFL-NH2 [TGHG], the “hydrolysis score” value is, setting by setting: under setting [3], 0 (a score of 0 if no trace of the product of hydrolysis was seen after 8 hours of incubation); under setting [4], 0 (a score of 0 if no trace of the product of hydrolysis was seen after 8 hours of incubation).
With Ac-GASQHMKFL-NH2 [SQHM], the “hydrolysis score” value is on record as 0 (a score of 0 if no trace of the product of hydrolysis was seen after 8 hours of incubation) under setting [1] and 3 (a score of 3 for detection at 8 hours) under setting [2].
Regarding Ac-GATAHYKFL-NH2 [TAHY], the “hydrolysis score” value under setting [3] is recorded as 0 (a score of 0 if no trace of the product of hydrolysis was seen after 8 hours of incubation) and the “hydrolysis score” value under setting [4] is listed as 0 (a score of 0 if no trace of the product of hydrolysis was seen after 8 hours of incubation).
Take Ac-GATRHVKFL-NH2 [TRHV]: the “hydrolysis score” value was 3 (a score of 3 for detection at 8 hours) under setting [3] and 4 (a score of 4 for detection at 6 hours) under setting [4].
For Ac-GATTHTKFL-NH2 [TTHT] the same measures were 0 (a score of 0 if no trace of the product of hydrolysis was seen after 8 hours of incubation) and 0 (a score of 0 if no trace of the product of hydrolysis was seen after 8 hours of incubation).
Consider Ac-GASWHKKFL-NH2 [SWHK], for which the “hydrolysis score” value by setting is: under setting [1], 4 (a score of 4 for detection at 6 hours); under setting [2], 12 (a score of 12, if it was seen to be partially hydrolysed at 2 hours).
For Ac-GASYHEKFL-NH2 [SYHE] the same measures were 0 (a score of 0 if no trace of the product of hydrolysis was seen after 8 hours of incubation) and 0 (a score of 0 if no trace of the product of hydrolysis was seen after 8 hours of incubation).
Turning to Ac-GASNHIKFL-NH2 [SNHI], the “hydrolysis score” value reads like this: under setting [1], 4 (a score of 4 for detection at 6 hours); under setting [2], 4 (a score of 4 for detection at 6 hours).
Ac-GASPHYKFL-NH2 [SPHY]: the “hydrolysis score” value is, setting by setting: under setting [1], 0 (a score of 0 if no trace of the product of hydrolysis was seen after 8 hours of incubation); under setting [2], 0 (a score of 0 if no trace of the product of hydrolysis was seen after 8 hours of incubation).
Consider Ac-GASIHVKFL-NH2 [SIHV], for which the “hydrolysis score” value reads like this: under setting [1], 3 (a score of 3 for detection at 8 hours); under setting [2], 3 (a score of 3 for detection at 8 hours).
Regarding Ac-GATQHEKFL-NH2 [TQHE], the “hydrolysis score” value runs as follows: under setting [3], 0 (a score of 0 if no trace of the product of hydrolysis was seen after 8 hours of incubation); under setting [4], 0 (a score of 0 if no trace of the product of hydrolysis was seen after 8 hours of incubation).
